SMILES strings stand for the structures. ≈ marks a conversion by molar mass, not a printed value. Structures can show the parent of a compound that is named as a salt.

Experimental findings from patent publication US11235015B2, “Antiviral Traditional Chinese Medicine composition and preparation method and use i'hereof” (priority 2017, dated 2022) are described below.

The subject of series [1] is avian influenza virus H7N7. The series can be described thus: microbe, parasite or virus in culture. Type of series: cell-based. To be noted: H7N7, MDCK; for OD value (A): MTT; for inhibition at 39.06 µg/mL / inhibition at 78.12 µg/mL / inhibition at 156.25 µg/mL / IC50: unidentified influenza virus; for inhibition at 39.06 µg/mL / inhibition at 78.12 µg/mL / inhibition at 156.25 µg/mL: H7N7; for IC50: H7N7 virus, MDCK cells.

In series [2] the test system is avian influenza virus H9N2. The series can be described thus: microbe, parasite or virus in culture. Type of series: cell-based. To be noted: H9N2, MDCK; for OD value (A): MTT; for inhibition at 39.06 µg/mL / inhibition at 78.12 µg/mL / inhibition at 156.25 µg/mL / IC50: Influenza A virus; for inhibition at 39.06 µg/mL / inhibition at 78.12 µg/mL / inhibition at 156.25 µg/mL: H9N2; for IC50: H9N2 virus, MDCK cells.

In another series the test system is MDCK cells. Kind of series: Toxicity of the tested substance on MDCK cells, MTT method. To be noted: OD 570 nm, 3 days. Background: Tetrazolium assays rely on reduction of a dye to a coloured formazan, in cell work by metabolically active cells.
Series [3] has as its system dry yeast induced fever in rats. The series can be described thus: Antipyretic effect, dry yeast induced fever in rats, rectal temperature. Type of series: in vivo, SD rats.
[4] abbreviates: 39.06 μg/ml, first of 2 experiments.
Setting [5] is: 39.06 μg/ml, second of 2 experiments.
Setting [6] is: 78.12 μg/ml, first of 2 experiments.
The mark [7] stands for this setting: 78.12 μg/ml, second of 2 experiments.
Where [8] appears, read: 156.25 μg/ml, first of 2 experiments.
Setting [9] is: 156.25 μg/ml, second of 2 experiments.

Consider `NC12CC3CC(CC(C3)C1)C2` [Adamantanamine, amantadine hydrochloride], for which the “OD value (A)” value was found to be 0.55 ± 0.04 A in series [1] (setting [4]); 0.57 ± 0.07 A in series [1] (setting [5]); 0.86 ± 0.08 A in series [1] (setting [6]); 0.81 ± 0.04 A in series [1] (setting [7]); 1.01 ± 0.07 A in series [1] (setting [8]); 0.98 ± 0.09 A in series [1] (setting [9]). In addition, the inhibition at 39.06 µg/mL in series [1] (setting [4]) stood at 36%; in series [1] (setting [5]), 38%. Also, the inhibition at 78.12 µg/mL is 60% in series [1] (setting [6]) and 55% in series [1] (setting [7]). In addition, the values for the inhibition at 156.25 µg/mL in series [1] (setting [8]) and in series [1] (setting [9]) were 71% and 68%, respectively. Moreover, the 50% inhibitory concentration (IC50) worked out at 62 µg/mL in series [1] (first of 2 experiments) and 66 µg/mL in series [1] (second of 2 experiments).
As for `NC12CC3CC(CC(C3)C1)C2` [amantadine], the “OD value (A)” value is on record as 0.37 ± 0.02 A in series [2] (setting [4]); 0.32 ± 0.03 A in series [2] (setting [5]); 0.64 ± 0.05 A in series [2] (setting [6]); 0.46 ± 0.03 A in series [2] (setting [7]); 0.71 ± 0.07 A in series [2] (setting [8]); 0.68 ± 0.15 A in series [2] (setting [9]). In addition, the “OD value (A)” value with MDCK cells (39.06 μg/ml) stood at 1.20 ± 0.04 A; in the series on MDCK cells (78.12 μg/ml), 1.05 ± 0.02 A; in the series with MDCK cells (156.25 μg/ml), 0.96 ± 0.05 A. Further, the inhibition at 39.06 µg/mL in series [2] (setting [4]) amounted to 34%; in series [2] (setting [5]), 27%. The inhibition at 78.12 µg/mL in series [2] (setting [6]) was determined as 65%; in series [2] (setting [7]), 42%. For the same compound, the inhibition at 156.25 µg/mL in series [2] (setting [8]) is 72%; in series [2] (setting [9]), 66%. The results for the IC50 in series [2] (first of 2 experiments) and in series [2] (second of 2 experiments) were 63 µg/mL (≈ 417 µM) and 66 µg/mL (≈ 436 µM), respectively.
With `CC(=O)Oc1ccccc1C(=O)O` [Aspirin], the rectal temperature in series [3] (100 mg/kg by gavage 0.5 h and […] after pyrogen, baseline value, 1 h before the injection of pyrogen, n = 5) amounted to 37.8 °C; in series [3] (100 mg/kg by gavage, 1 h after the injection of pyrogen), 38.0 °C; in series [3] (100 mg/kg by gavage, 2 h after the injection of pyrogen), 37.5 °C; in series [3] (100 mg/kg by gavage, 3 h after the injection of pyrogen), 37.7 °C; in series [3] (100 mg/kg by gavage, 4 h after the injection of pyrogen), 37.8 °C; in series [3] (100 mg/kg by gavage, 5 h after the injection of pyrogen), 38.1 °C. The rectal temperature in series [3] (100 mg/kg by gavage, 6 h after the injection of pyrogen) worked out at 38.1 °C; in series [3] (100 mg/kg by gavage, 7 h after the injection of pyrogen), 38.3 °C; in series [3] (100 mg/kg by gavage, 8 h after the injection of pyrogen), 38.5 °C; in series [3] (100 mg/kg by gavage, 9 h after the injection of pyrogen) it was 38.8 °C. Besides, in series [3] (100 mg·kg^−1, starting from […] after the injection of the pyrogen), the “time for which the effect of reducing the body temperature was maintained” value turned out to be 4 h.

In general, inhibition refers to the drop in the measured response relative to a control, in per cent. Read a low inhibition as a weak effect. One may read the IC50 as the concentration at which inhibition is half-maximal. A lower IC50 goes with greater potency.
